Legend:
[1] = tested on: reserpine-induced mice migraine; test: Reserpine-induced mice migraine; format: in vivo, ICR mice; settings: for Blood coagulation time: reserpine 0.2 mg/kg sc mice, 1 h after final administration; for brain tissue 5-HT / Times of tail suspension (struggling times within 2 min): reserpine mice; for Times of tail suspension (struggling times within 2 min): 9th day
ulcerative colitis mice = test: Mice ulcerative colitis (DSS); format: in vivo, BALB/c mice; settings: for Total times of hematochezia within the four periods / Colon length / IL-1 content: DSS mice; for Colon length: four periods; for IL-1 content: serum, ELISA
[2] = tested on: mice with inflammatory pain; test: Pain threshold of mice with inflammatory pain (complete Freund's adjuvant); format: in vivo, SD mice; settings: for Pain threshold: complete Freund's adjuvant paw model
[3] = tested on: mice pain response induced by hot plate; test: Mice pain response induced by hot plate; format: in vivo, ICR mice; settings: for Pain threshold: hot plate 55°C
In short: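 Female ICR mice (20±2 g) dosed intragastrically for 7 consecutive days. Latency to hind-paw licking on a 55±0.5° C hot plate measured at 30, 60, 90 and 120 min after the last dose, with a 60 s cap. Mice with baseline latency <5 s or >30 s, or jumping, excluded.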

Q: Which results are given for `Cn1c(C(=O)N2CCC(C(=O)Nc3cccc(Cl)c3)CC2)cc2ccccc21` [MAGLZ-II-18 (c)]?
A: blood coagulation time, in words ([1]; compared with the model group): significantly extend; level of 5-HT in the brain tissue, in words ([1]; compared with the model group): significantly increase; times of the tail suspension activity, in words ([1]; compared with the model group): significantly increase; Blood coagulation time ([1]; high dose 30 mg/kg ig 10 d): 237.13±28.75 S; Blood coagulation time ([1]; low dose 7.5 mg/kg ig 10 d): 148.00±30.23 S; Blood coagulation time ([1]; middle dose 15 mg/kg ig 10 d): 198.63±21.36 S; brain tissue 5-HT ([1]; high dose 30 mg/kg ig 10 d): 1.79 ± 0.32 nmol/g; Times of tail suspension (struggling times within 2 min) ([1]; high dose 30 mg/kg ig): 15.88±3.8; brain tissue 5-HT ([1]; low dose 7.5 mg/kg ig 10 d): 1.14 ± 0.22 nmol/g; Times of tail suspension (struggling times within 2 min) ([1]; low dose 7.5 mg/kg ig): 10.13±2.3; brain tissue 5-HT ([1]; middle dose 15 mg/kg ig 10 d): 1.37 ± 0.34 nmol/g; Times of tail suspension (struggling times within 2 min) ([1]; middle dose 15 mg/kg ig): 12.75±2.6; Total times of hematochezia within the four periods (ulcerative colitis mice; high dose 30 mg/kg ig): 31.80±6.6; Colon length (ulcerative colitis mice; high dose 30 mg/kg ig): 6.65±0.67 cm; IL-1 content (ulcerative colitis mice; high dose 30 mg/kg ig): 45.10 ± 8.88 pg/mL; Total times of hematochezia within the four periods (ulcerative colitis mice; low dose 7.5 mg/kg ig): 43.10±7.59; Colon length (ulcerative colitis mice; low dose 7.5 mg/kg ig): 6.25±1.17 cm; IL-1 content (ulcerative colitis mice; low dose 7.5 mg/kg ig): 48.08 ± 13.18 pg/mL; Total times of hematochezia within the four periods (ulcerative colitis mice; middle dose 15 mg/kg ig): 43.20±5.31; Colon length (ulcerative colitis mice; middle dose 15 mg/kg ig): 6.47±0.71 cm; IL-1 content (ulcerative colitis mice; middle dose 15 mg/kg ig): 44.09 ± 9.13 pg/mL; IL-1 content, in words (ulcerative colitis mice; compared with the model group): decrease; colon length, in words (ulcerative colitis mice; compared with the model group): significantly increase; total times of hematochezia, in words (ulcerative colitis mice; compared with the model group): reduce; pain threshold of the mice with inflammatory pain, in words ([2]; compared with the model group): significantly extend; Pain threshold ([2]; high dose 30 mg/kg ig once per day, 0 d): 12.85±2.09^∗ s; Pain threshold ([2]; high dose 30 mg/kg ig once per day, 1 d): 6.44±0.92^∗ s; Pain threshold ([2]; high dose 30 mg/kg ig once per day, 3 d): 8.17±1.14^∗ s; Pain threshold ([2]; high dose 30 mg/kg ig once per day, 7 d): 9.05±0.84^∗ s; Pain threshold ([2]; low dose 7.5 mg/kg ig once per day, 0 d): 12.75±2.46^∗ s; Pain threshold ([2]; low dose 7.5 mg/kg ig once per day, 1 d): 6.36±0.89^∗ s; Pain threshold ([2]; low dose 7.5 mg/kg ig once per day, 3 d): 7.98±1.21^∗ s; Pain threshold ([2]; low dose 7.5 mg/kg ig once per day, 7 d): 8.95±0.67^∗ s; Pain threshold ([2]; middle dose 15 mg/kg ig once per day, 0 d): 12.86±2.07^∗ s; Pain threshold ([2]; middle dose 15 mg/kg ig once per day, 1 d): 6.41±0.91^∗ s; Pain threshold ([2]; middle dose 15 mg/kg ig once per day, 3 d): 8.10±1.30^∗ s; Pain threshold ([2]; middle dose 15 mg/kg ig once per day, 7 d): 8.99±0.92^∗ s; pain thresholds of the thermal-stimulus mice, in words ([3]; compared with the model group): significantly extend; Pain threshold ([3]; high dose 30 mg/kg ig 7 d, 30 min after final administration): 29.23 ± 7.95 s; Pain threshold ([3]; high dose 30 mg/kg ig 7 d, 60 min): 30.24 ± 7.80 s; Pain threshold ([3]; high dose 30 mg/kg ig 7 d, 90 min): 30.66 ± 8.35 s; Pain threshold ([3]; high dose 30 mg/kg ig 7 d, 120 min): 29.87 ± 7.43 s; Pain threshold ([3]; low dose 7.5 mg/kg ig 7 d, 30 min after final administration): 23.98 ± 6.89 s; Pain threshold ([3]; low dose 7.5 mg/kg ig 7 d, 60 min): 24.75 ± 6.91 s; Pain threshold ([3]; low dose 7.5 mg/kg ig 7 d, 90 min): 25.16 ± 8.87 s; Pain threshold ([3]; low dose 7.5 mg/kg ig 7 d, 120 min): 24.28 ± 7.17 s; Pain threshold ([3]; middle dose 15 mg/kg ig 7 d, 30 min after final administration): 26.82 ± 7.99 s; Pain threshold ([3]; middle dose 15 mg/kg ig 7 d, 60 min): 28.52 ± 6.18 s; Pain threshold ([3]; middle dose 15 mg/kg ig 7 d, 90 min): 28.66 ± 8.73 s; Pain threshold ([3]; middle dose 15 mg/kg ig 7 d, 120 min): 27.88 ± 7.74 s
